Assay [1] in a line: Chelation of zinc (II) ion by tetramethylmurexide reagent. Format: physicochemical. Particulars: hexamine/HCl buffer pH 5.0, mean ± SD. The procedure:
Therefore, this extract was selected to study its chelation ability with zinc (II) ion. […]. Based on this standard curve, the amount of metal ions bound by the compound tested was evaluated. […].
Briefly, 0.01 M hexamine/HCl buffer was prepared at pH 5.0 with addition of 0.01 M KCl. Stock solution of captopril. […] A series of working sample solutions were prepared by diluting the stock solutions with hexamine/HCl buffer (0–5 mg/mL). ZnCl2 was prepared in the same buffer at concentration of 0.8 mM. Then, 1 mL of sample solutions was mixed with 1 mL ZnCl2 solution and 0.1 mL tetramethylmurexide at concentration of 1 mM. Absorbance was recorded at 462 nm and 530 nm and then the ratio of A462/A530 was calculated. Distilled deionized water was used instead of tetramethylmurexide reagent in control samples. A standard curve of absorbance ratio versus metal ions concentrations (0 to 3.2 mM) was prepared and the percentage of bound metal ions was calculated. Percentage of bond with Zn^2+ = 1 − (Concentration of free Zn^2+/Concentration of total Zn^2+) × 100(4)

The target in assay [2] is T1, ACE enzyme (from rabbit lung) (Oryctolagus cuniculus, UniProt P12822).
T1 sequence (P12822 34-1310): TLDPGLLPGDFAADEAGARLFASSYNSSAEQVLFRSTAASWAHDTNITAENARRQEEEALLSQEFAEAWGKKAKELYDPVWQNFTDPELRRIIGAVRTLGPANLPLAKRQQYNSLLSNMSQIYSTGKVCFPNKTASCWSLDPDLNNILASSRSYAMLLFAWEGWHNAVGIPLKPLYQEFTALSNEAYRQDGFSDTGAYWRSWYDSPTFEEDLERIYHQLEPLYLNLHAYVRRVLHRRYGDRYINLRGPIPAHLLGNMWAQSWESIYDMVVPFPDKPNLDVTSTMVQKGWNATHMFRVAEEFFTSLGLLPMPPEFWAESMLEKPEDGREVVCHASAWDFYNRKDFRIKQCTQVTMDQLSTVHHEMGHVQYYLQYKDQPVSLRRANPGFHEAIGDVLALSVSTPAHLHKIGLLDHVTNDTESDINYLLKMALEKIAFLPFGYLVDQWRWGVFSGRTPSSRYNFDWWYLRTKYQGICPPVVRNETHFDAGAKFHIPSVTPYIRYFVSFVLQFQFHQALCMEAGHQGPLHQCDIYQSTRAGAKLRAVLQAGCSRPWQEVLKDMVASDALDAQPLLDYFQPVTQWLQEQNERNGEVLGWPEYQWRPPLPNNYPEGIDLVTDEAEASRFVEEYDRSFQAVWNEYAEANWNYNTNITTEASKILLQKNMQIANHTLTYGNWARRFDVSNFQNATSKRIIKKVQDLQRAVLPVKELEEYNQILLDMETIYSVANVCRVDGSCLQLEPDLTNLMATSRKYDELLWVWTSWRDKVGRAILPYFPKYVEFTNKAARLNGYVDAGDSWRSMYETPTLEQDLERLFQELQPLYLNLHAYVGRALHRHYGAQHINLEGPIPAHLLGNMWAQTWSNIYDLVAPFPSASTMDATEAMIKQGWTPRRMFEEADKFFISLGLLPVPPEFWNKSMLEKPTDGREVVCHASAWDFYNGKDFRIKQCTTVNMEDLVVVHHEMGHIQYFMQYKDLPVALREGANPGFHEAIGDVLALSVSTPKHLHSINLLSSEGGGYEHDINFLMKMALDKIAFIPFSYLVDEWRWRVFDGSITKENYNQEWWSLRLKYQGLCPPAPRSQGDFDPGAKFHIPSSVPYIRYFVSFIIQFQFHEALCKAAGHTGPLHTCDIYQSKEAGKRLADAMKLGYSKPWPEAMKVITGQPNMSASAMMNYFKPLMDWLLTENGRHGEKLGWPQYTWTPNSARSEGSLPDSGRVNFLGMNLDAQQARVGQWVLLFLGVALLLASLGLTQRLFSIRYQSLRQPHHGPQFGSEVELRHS
Description: In vitro ACE inhibition activity (HA formation from HHL, HPLC-UV).
Description: This method relies on determining hippuric acid (HA) formation from ACE-specific substrate hippuryl-histidyl-leucine (HHL) by the action of ACE enzyme, resulting in the removal of C-terminal dipeptide histidylleucine.
The high performance liquid chromatography (HPLC) was performed using an Agilent Technologies (Series 1200 infinity, Frankfurt, Germany) system. Separations were accomplished on a Zorbax Eclipse plus phenyl-hexyl (4.6 mm × 250 mm, 5 µm, Agilent) and the column temperature was maintained at 30 °C. Substrates of HA and HHL were detected at 228 nm. The flow rate was set at 0.6 mL/min and injection volume was 10 μL. The mobile phase consisted of 20% acetonitrile and 80% of 0.1% ammonium dihydrogen phosphate buffer was used in this analysis with 10 min separation time.
For substrate HHL hydrolysis catalyzed by purified rabbit ACE enzyme, the total reaction volume was 200 µL. Phosphate buffer (pH 8.3) was used to dilute the substrate HHL and rabbit lung ACE enzyme. […] The reaction mixtures were incubated for 2 h at 37 °C. The reaction was terminated by heating the samples at 100 °C in water bath, and then 800 µL of water was added to all samples, and they were analyzed by stated HPLC method.
HHL as substrate was prepared freshly in 10 mM phosphate buffer pH 8.3 and then sonicated for 30 min. […] Angiotensin converting enzyme (ACE) was prepared at 0.05 U/mL in phosphate buffer pH 8.3 containing 0.1% bovine serum albumin (BSA). Then, 50 µL of purified ACE enzyme and 20 µL extracts, reference compounds or captopril at different concentrations were added to 130 µL of HHL substrate. Control reaction mixture was contained 20 µL of 50% ethanol instead of extracts. All samples were incubated for 2 h at 37 °C. The reaction was stopped by heating the samples at 100 °C. All samples were analyzed by HPLC after adding 800 µL of water. ACE inhibition rate was calculated by the following equation: ACE inhibition activity of test substances (%) = [(HA concentration levels without test substances) − (HA concentration levels with test substances)/(HA concentration levels without test substances)] × 100 (3)

Structures are written as SMILES. Where “and” joins values, the source holds several entries; their conditions need not be identical. Equal values may be shown once. Read-outs that look alike come from different tables or passages of the source.

Results on five molecules are retold here after paper PMC6274529, “Flavonoids-Rich Orthosiphon stamineus Extract as New Candidate for Angiotensin I-Converting Enzyme Inhibition: A Molecular Docking Study” (Molecules, 2016).

On to `C[C@H](CS)C(=O)N1CCC[C@H]1C(=O)O` [Captopril, captopril], for which the “Zn (II) chelating activity (percentage of bound Zn (II))” value (shortened to “Zn … (percentage of bound Zn (II))”) in assay [1] (at concentration of 4 mg/mL) is reported as 100% ± 1.59%.

As to `COc1ccc(-c2cc(=O)c3c(O)c(OC)c(OC)cc3o2)cc1O` [EUP, eupatorin], the “Zn … (percentage of bound Zn (II))” value in assay [1] (at concentration of 5 mg/mL) was 56.03% ± 1.26%. For the same molecule, in assay [2] (IC50 on in vitro ACE inhibitory assay, purified rabbit lung ACE, HHL substrate, 2 h at 37 °C, mean ± SD (n = 3)), the IC50 was 44.6 µM and 44.7 µM.

Regarding `O=C(/C=C/c1ccc(O)c(O)c1)O[C@H](Cc1ccc(O)c(O)c1)C(=O)O` [RA, rosmarinic acid], the half-maximal inhibitory concentration (IC50) in assay [2] was 52.2 µM.

Turning to `COc1ccc(-c2cc(=O)c3c(OC)c(OC)c(OC)cc3o2)cc1OC` [SIN, sinensetin], in assay [1] (at concentration of 5 mg/mL), the “Zn … (percentage of bound Zn (II))” value is on record as 6.71% ± 0.62%. The molecule further gave an IC50 in assay [2] of 79.2 µM.

In turn, `COc1ccc(-c2cc(=O)c3c(OC)c(OC)c(OC)cc3o2)cc1O` [TMF, 3′-hydroxy-5,6,7,4′-tetramethoxyflavone] showed an IC50 in assay [2] of 77.9 µM.
